As a reminder, the IC50 is the concentration needed to halve the response being measured. One may read the Papp A→B as the apparent permeability from the apical to the basolateral side of a cell layer. As a reminder, the Papp B→A is the apparent permeability from the basolateral to the apical side of a cell layer.

Data set [1] has as its target T1, JAK1 (Homo sapiens, UniProt P23458).
T1 construct: purchased Carna Biosciences
The experiment in a line: JAK1 kinase activity, microfluidic assay (Caliper EZ Reader II, FAM labeled peptide substrate). The format is biochemical. To be noted: JAK1 10 nM, 1 mM ATP. As for the experimental part: (§1) Testing for JAK1, JAK2 and TYK2 Kinase Activities
(§2) JAK activity was determined in the reaction buffer 50 mM HEPES, 0.01% Brij35, 10 mM MgCl2, 2 mM DTT by a microfluidic assay. The phosphorylation of a FAM labeled peptide substrate was monitored in the Caliper EZ Reader II (Perkin Elmer). The assay condition for each batch of enzyme (Carna Biosciences) was optimized to obtain 10% conversion rate of peptide substrate.
(§3) The test compounds were dissolved in DMSO to a stock concentration of 10 mM. Three-fold serially diluted compounds with top concentration of 5 µM were pre-incubated with JAK1, JAK2 or TYK2 for 10 min at ambient temperature. The final DMSO concentration of assay mixture was 1%. […] The reaction was stopped by adding 50 mM EDTA.
(§4) And the well without compound but with equivalent DMSO was defined as no inhibition. The percent inhibition was calculated by the following formula: % Inhibition = (Conversion%_max−Conversion%_sample)/(Conversion%_max−Conversion%_min) × 100 [formula] wherein • Conversion%_ max = the conversion rate in the positive well without addition of compound • Conversion%_ sample = the conversion rate of test compounds • Conversion%_ min = the conversion rate in the well without addition of enzyme
(§5) The dose-response (percent inhibition) curve was plotted and IC50 values were determined by GraphPad software. The IC50 values of tested compounds were list in Table 3. Table 3. JAK1, JAK2 and TYK2 IC50 Values of Illustrative Compounds

For data set [2], the target named is T2, JAK2 (Homo sapiens, UniProt O60674).
T2 construct: purchased Carna Biosciences
T2 sequence (O60674 849-1124 limits assumed): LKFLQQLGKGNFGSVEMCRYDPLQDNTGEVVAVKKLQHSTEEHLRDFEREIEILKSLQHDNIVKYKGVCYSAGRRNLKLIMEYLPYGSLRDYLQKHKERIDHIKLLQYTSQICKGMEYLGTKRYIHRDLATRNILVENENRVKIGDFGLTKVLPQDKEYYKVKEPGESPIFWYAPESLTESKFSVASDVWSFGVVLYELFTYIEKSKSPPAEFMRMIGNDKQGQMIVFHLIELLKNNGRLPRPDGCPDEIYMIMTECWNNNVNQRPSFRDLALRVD
The experiment in a line: JAK2 kinase activity, microfluidic assay (Caliper EZ Reader II, FAM labeled peptide substrate). It is filed as biochemical. Conditions: JAK2 1.5 nM, 1 mM ATP. As for the experimental part:
as §1, §2, §3, §4, §5

Data set [3] has as its target T3, TYK2 (Homo sapiens, UniProt P29597).
T3 construct: purchased Carna Biosciences
T3 sequence (P29597 897-1176 limits assumed): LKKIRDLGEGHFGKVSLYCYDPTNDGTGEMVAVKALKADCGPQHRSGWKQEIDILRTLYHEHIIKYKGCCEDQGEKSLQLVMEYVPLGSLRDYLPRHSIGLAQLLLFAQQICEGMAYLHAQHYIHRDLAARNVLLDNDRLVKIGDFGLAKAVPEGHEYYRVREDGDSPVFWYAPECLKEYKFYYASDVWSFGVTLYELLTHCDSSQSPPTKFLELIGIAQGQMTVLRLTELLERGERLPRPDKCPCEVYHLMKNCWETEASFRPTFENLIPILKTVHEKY
The experiment in a line: TYK2 kinase activity, microfluidic assay (Caliper EZ Reader II, FAM labeled peptide substrate). It is filed as biochemical. Conditions: TYK2 20 nM, 1 mM ATP. As to the method:
as §1, §2, §3, §4, §5

Data set [4] relates to pSTAT1. The experiment in a line: Phosphorylation inhibition of STAT in human whole blood (IFN-alpha stimulated, flow cytometry). The format is cell-based. To be noted: T-cell, 20 min, IFN-alpha stimulation 20 mins, CD3 T cells, read-out: pSTAT1 inhibition in hWB (IC50). A digest of the protocol:
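Fresh human whole blood stimulated 20 min with human universal type I IFN-alpha, then fixed, permeabilised and stained for CD3 and pSTAT1 (Y701). pSTAT1 in T cells read by flow cytometry; IC50 from 4-parameter logistic fit.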

Data set [5] concerns IFNa pSTAT1. The experiment in a line: Phosphorylation of STAT1 inhibition in HMC3 cells by Jess. It is filed as cell-based. Conditions: Homo sapiens; HMC3 microglia cells, 50ng/mL hINFα 1 hour, Jess western; read-out: Jess_HMC3 IC50 (IFNa pSTAT1).
Data set [6] deals with IFNa pSTAT1. The experiment in a line: Phosphorylation of STAT1 inhibition in CCF-STTG1 cells by Jess. It is filed as cell-based. Conditions: Homo sapiens, 0.5 h; CCF-STTG1 astrocyte cells, IFNα induction 30 mins, Jess western; read-out: Jess_CCF-STTG1 IC50 (IFNa pSTAT1). As for the experimental part: Seeding HMC3 cells into 12-well plate and incubate overnight. Pre-stimulation with recombinant human IFNα (Sino biological, H08Y), treat cells with compound with different concentration for 1hr. After compound treatment, stimulate HMC3 cells with 50ng/mL hINFα for another 1 hour (for CCF-STTG1 cells IFNα induction time is 30 mins). And then wash cells with DPBS once gently and lyse cells with pre-cooled RIPA buffer (Sigma, R0278-500ML) for 30min on ice to harvest cells. Centrifuge cell lysate for 20 mins at 12000rpm with freezer centrifuge (Thermo Scientific, Heraeus Fresco 21) to extract protein. Prepare samples with Jess Simple Wes kit (SM-WO04) and then run western blot on Jess simple western system (Protein simple, JS-4631). Collect data and analyzed with GraphPad Prism.

Data set [7] can be described thus: Caco-2 cell permeability. It is filed as in vitro ADME. To be noted: human, Caco-2, 10.0 µM, no p-gp inhibitor. As to the method: Compounds permeability was evaluated using Caco-2 cell lines. HBSS buffer was used as transfer buffer. Appropriate dosing and receiver solutions were applied to the donor and receiver chambers to initiate the transport assay in apical to basolateral (A to B) or basolateral to apical (B to A) directions. Compounds were tested at 10.0 µM in the absence of p-gp inhibitor bidirectionally in duplicates. After incubation at 37°C for 90 mins, donor and receiver samples were analyzed by LC-MS/MS. The intestinal absorption potential was assessed using Papp value and efflux ratio.
On the technique in general: Caco-2 cells form a polarised layer with tight junctions and transporters.

T1 sequence (P23458 875-1153 limits assumed): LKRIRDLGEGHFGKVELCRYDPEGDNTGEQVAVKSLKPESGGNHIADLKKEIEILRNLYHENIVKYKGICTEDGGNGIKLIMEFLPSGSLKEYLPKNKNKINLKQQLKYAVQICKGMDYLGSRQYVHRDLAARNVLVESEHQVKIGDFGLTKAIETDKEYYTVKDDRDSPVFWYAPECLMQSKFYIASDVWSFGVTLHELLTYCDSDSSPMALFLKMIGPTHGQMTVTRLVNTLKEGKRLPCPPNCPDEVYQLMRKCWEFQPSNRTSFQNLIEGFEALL

In the case of `COC(=O)c1cnc(NC(=O)C2CC2)cc1Nc1nn(C)c2ccc([C@H](O)C(F)(F)F)c(OC)c12` [Example 48A, Methyl (S)-6-(cyclopropanecarboxamido)-4-((4-methoxy-1-methyl-5-(2,2,2-trifluoro-1-hydroxyethyl)-1H-indazol-3-yl)amino)nicotinate], the IC50 is over 5000 nM in data set [1]; over 5000 nM in data set [2]; over 5000 nM in data set [3]; 29.1 nM in data set [4]; 1.03 nM in data set [5]; 0.74 nM in data set [6]. In data set [7] (90 mins, A to B), this compound registered a Papp A→B at 90 min, 10 µM of 29.9 ×10⁻⁶ cm/s. The Papp B→A at 90 min, 10 µM in data set [7] (90 mins, B to A) amounted to 29 ×10⁻⁶ cm/s. In data set [7] (read-out: Efflux Ratio: Papp(B-A)/Papp(A-B)), the efflux ratio at 90 min, 10 µM came out at 0.97.

The record behind these values is EP4813463A2, “TYK2 INHIBITORS AND COMPOSITIONS AND METHODS THEREOF” (Lynk Pharmaceuticals Co. Ltd., priority 2023, dated 2024).
